Biological target: Indoleamine 2,3-dioxygenase 1 (Homo sapiens, UniProt P14902)
Assay: Inhibition of IDO1 in IFN-gamma stimulated human HeLa cells assessed as inhibition of kynurenine production pre-incubated for 1 hr followed by IFN-gamma addition and measured after 18 hrs
Assay type: cell-based

Indoleamine 2,3-dioxygenase 1, sequence (P14902 whole entry): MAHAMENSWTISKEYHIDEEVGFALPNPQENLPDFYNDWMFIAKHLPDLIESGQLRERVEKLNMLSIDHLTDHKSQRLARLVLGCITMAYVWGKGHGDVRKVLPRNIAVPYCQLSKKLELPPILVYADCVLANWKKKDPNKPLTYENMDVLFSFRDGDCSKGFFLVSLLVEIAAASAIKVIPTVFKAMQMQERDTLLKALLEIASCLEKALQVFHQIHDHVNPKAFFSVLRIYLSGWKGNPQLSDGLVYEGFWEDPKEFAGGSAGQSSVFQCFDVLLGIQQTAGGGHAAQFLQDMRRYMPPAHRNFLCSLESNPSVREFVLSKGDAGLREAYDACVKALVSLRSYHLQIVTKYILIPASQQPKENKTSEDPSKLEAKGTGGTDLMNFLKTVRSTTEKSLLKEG

| SMILES | IC50 |
| --- | --- |
| Cc1ccc(NC(=O)Nc2cc(-c3cccc(C(=O)O)c3)ccc2Oc2ccccc2C(C)(C)C)cc1 | > 1 µM |
| CCCCN(CCCC)c1ccc(-c2ccccc2C(=O)O)cc1NC(=O)Nc1ccc(C)cc1 | 0.045 µM |
| Cc1ccc(NC(=O)Nc2cc(-c3ccc(C(=O)O)cc3)ccc2Oc2ccccc2C(C)(C)C)cc1 | > 1 µM |
| Cc1ccc(NC(=O)Nc2cc(-c3ccccc3NS(C)(=O)=O)ccc2N(CC(C)C)CC(C)C)cc1 | > 1 µM |
| COCCN(CCOC)c1ccc(-c2ccccc2C(=O)O)cc1NC(=O)Nc1ccc(C)cc1 | > 1 µM |
| Cc1ccc(NC(=O)Nc2cc(-c3ccccc3-c3nnn[nH]3)ccc2N(CC(C)C)CC(C)C)cc1 | 0.004 µM |
| Cc1ccc(NC(=O)Nc2cc(-c3ccccc3C(=O)NS(=O)(=O)C(F)(F)F)ccc2N(CC(C)C)CC(C)C)cc1 | > 1 µM |
| Cc1ccc(N2CCN(c3cc(-c4ccccc4-c4nnn[nH]4)ccc3N(CC(C)C)CC(C)C)C2=O)cc1 | 0.028 µM |
| CCN(c1ccc(-c2ccccc2C(=O)O)cc1NC(=O)Nc1ccc(C)cc1)C1CCCC1 | 0.023 µM |
| Cc1ccc(NC(=O)Nc2cc(-c3ccccc3C(=O)O)ccc2N(CC(C)C)C(C)C)cc1 | 0.042 µM |
| Cc1ccc(NC(=O)Nc2cc(-c3ccccc3NS(=O)(=O)C(F)(F)F)ccc2N(CC(C)C)CC(C)C)cc1 | 0.076 µM |
| Cc1ccc(NC(=O)N(C)c2cc(-c3ccccc3-c3nnn[nH]3)ccc2N(CC(C)C)CC(C)C)cc1 | 0.097 µM |
| Cc1ccc(NC(=O)Nc2cc(-c3ccccc3C(=O)O)ccc2N(C)C2CCCCC2)cc1 | 0.014 µM |
| Cc1ccc(NC(=O)Nc2cc(-c3ccccc3C(=O)O)ccc2N(C)c2ccccc2C(C)(C)C)cc1 | > 1 µM |
| Cc1ccc(N(C)C(=O)Nc2cc(-c3ccccc3-c3nnn[nH]3)ccc2N(CC(C)C)CC(C)C)cc1 | 0.405 µM |
| Cc1ccc(NC(=O)Nc2cc(-c3ccccc3C(=O)O)ccc2N(CC(C)C)CC(C)C)cc1 | 0.013 µM |

From ChEMBL document CHEMBL4184247, “Development of a series of novel o-phenylenediamine-based indoleamine 2,3-dioxygenase 1 (IDO1) inhibitors” (Bioorg Med Chem Lett, 2018)
